Here are results for 16 compounds from publication PMC7470070, “Discovery of N-(1-(3-fluorobenzoyl)-1H-indol-5-yl)pyrazine-2-carboxamide: a novel, selective, and competitive indole-based lead inhibitor for human monoamine oxidase B” (Journal of Enzyme Inhibition and Medicinal Chemistry, 2020).

Data set [1] concerns the target T1, Human recombinant MAO-B (hMAO-B) (Homo sapiens, UniProt P27338).
T1 construct: purchased Sigma-Aldrich (St. Louis, MO); host or cells: insect cells
T1 sequence (P27338 1-520): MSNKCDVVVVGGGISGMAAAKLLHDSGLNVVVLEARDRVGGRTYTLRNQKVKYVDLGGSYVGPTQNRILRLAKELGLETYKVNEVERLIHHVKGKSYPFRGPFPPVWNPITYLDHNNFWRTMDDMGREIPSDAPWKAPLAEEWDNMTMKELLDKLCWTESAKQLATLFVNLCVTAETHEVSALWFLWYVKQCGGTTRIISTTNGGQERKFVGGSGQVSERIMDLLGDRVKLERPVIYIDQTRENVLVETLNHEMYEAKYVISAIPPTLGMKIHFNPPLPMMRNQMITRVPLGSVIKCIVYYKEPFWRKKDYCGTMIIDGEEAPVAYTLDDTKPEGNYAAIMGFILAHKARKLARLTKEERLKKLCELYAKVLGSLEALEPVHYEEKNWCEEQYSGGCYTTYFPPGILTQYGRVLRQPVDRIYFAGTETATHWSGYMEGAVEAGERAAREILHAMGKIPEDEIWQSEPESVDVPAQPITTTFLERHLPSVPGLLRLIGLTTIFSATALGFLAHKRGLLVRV
The data set is described as follows: Monoamine oxidase enzyme assay (Amplex Red), MAO-B. The note with it: for inhibition at 10 µM: read-out: Inhibition percent of MAO-B; for IC50: as given in abstract; for SI (selectivity index), IC50 (MAO-A)/IC50 (MAO-B): selectivity for the MAO-B isoform. It counts as biochemical. The procedure: (§1) The inhibitory activity of MAO-A, B enzyme of the compounds was evaluated based on previously described method. The MAO activity was measured in relative fluorescence units (RFUs) evoked by peroxidase-catalyzed oxidation of Amplex Red® to resorufin, in which H2O2 generated by MAO reaction was used as the electron donor. Human recombinant MAO-A (hMAO-A) and MAO-B (hMAO-B) enzyme expressed in insect cells were obtained from Sigma-Aldrich (St. Louis, MO). The 2 μL of test compound in DMSO (final concentration: 1 nM to 10 μM) was treated with 98 μL of hMAO enzyme solution in 50 mM sodium phosphate buffer (pH 7.4, final protein amounts: ∼1.25 μg protein/well for MAO-A and ∼2.5 μg protein/well for MAO-B) on 96-well black plate and incubated for 15 min at 37 °C. Then, 100 μL of reaction working solution which is mixed solution of 400 μM Amplex Red® (Cayman, Ann Arbor, MI, final concentration: 200 μM), 2 U/mL horseradish peroxidase (Sigma-Aldrich, St. Louis, MO, final concentration: 1 U/mL) and 2 mM substrate (p-tyramine for MAO-A, benzylamine for MAO-B, Sigma-Aldrich, St. Louis, MO, final concentration: 1 mM) in 50 mM sodium phosphate buffer (pH 7.4) were added and incubated for 20 min at 37 °C in the dark. The fluorescent intensity was quantified using a microplate reader (SpectraMax®i3, Molecular Devices, Sunnyvale, CA) with an excitation at 545 nm and an emission at 590 nm. The 50% inhibitory concentrations (IC50) of compounds were determined as the mean ± SEM in triplicate from the dose–response inhibition curves using SigmaPlot® 13.0 (Palo Alto, CA).
The target compounds 4a−l were biologically evaluated for their potential inhibitory activities over human MAO-B recombinant enzyme. The enzyme inhibition assay of the tested compounds was conducted using Amplex® Red reagent technology which offers quantitative enzyme activity sensitive detection with extended dynamic range compared to classic colorimetric oxidase assays in addition to its advantage of the fluorescence emission outside the range of compound autofluorescence (if any). Since Amplex® Red reagent is a colourless substrate able to react with H2O2 with a 1:1 stoichiometry to yield highly fluorescent resorufin, the elicited inhibitory activities of the tested compounds over MAO-B were evaluated via spectrophotometrical measurement and the fluorescence rate of the resorufin dye formation was detected. As mentioned previously, all the target compounds were designed to incorporate the same amide moiety in VI and VII at position 5 of the indole scaffold connecting one of three different heteroaromatic cycles with the indole core which is substituted with either aromatic or aliphatic moiety. […] In addition, we noticed that the benzyl and benzoyl moieties, bearing the electron-withdrawing 3- or 4-fluoro groups in 4a−f, exerted better inhibition than the pyridylmethyl substituent (4g−i). […] It is also noteworthy to mention that the three different heteroaryl cycles incorporated in our design (pyridazine, pyrazine, and pyridine) were represented in each of the last three compounds.
The inhibitory potencies (IC50 values) of compounds producing inhibition of MAO-B activity by more than 50% were determined using five doses assay with 10, 1, 0.1, 0.01, and 0.001 μM concentrations of the tested compounds. Consequently, analogues 4b and 4e were further evaluated to determine their IC50 over MAO-B in triplicate from the dose response inhibition curves using Sigma-Plot software version 13.0 as indicated in Figure 3.

Data set [2] relates to human MAO-B. More on the design: method as in PMID 24955776. The note with it: cited from earlier work.
The target in data set [3] is T2, Human recombinant MAO-A (hMAO-A) (Homo sapiens, UniProt P21397).
T2 construct: purchased Sigma-Aldrich (St. Louis, MO); host or cells: insect cells
T2 sequence (P21397 1-527): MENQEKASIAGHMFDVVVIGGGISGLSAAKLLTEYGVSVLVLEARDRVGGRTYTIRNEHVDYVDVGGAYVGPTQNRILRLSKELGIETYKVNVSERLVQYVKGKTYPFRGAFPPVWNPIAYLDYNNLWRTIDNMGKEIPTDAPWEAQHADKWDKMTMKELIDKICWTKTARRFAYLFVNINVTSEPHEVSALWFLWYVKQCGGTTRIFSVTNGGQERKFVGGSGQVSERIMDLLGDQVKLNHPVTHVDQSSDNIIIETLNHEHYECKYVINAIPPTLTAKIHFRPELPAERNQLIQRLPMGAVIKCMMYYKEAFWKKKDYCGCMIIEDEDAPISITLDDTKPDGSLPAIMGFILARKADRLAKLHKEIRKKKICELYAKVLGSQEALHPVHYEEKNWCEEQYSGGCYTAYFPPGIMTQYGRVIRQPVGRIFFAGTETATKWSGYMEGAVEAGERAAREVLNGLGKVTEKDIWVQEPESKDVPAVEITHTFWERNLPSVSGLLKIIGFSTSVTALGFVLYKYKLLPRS
The data set is described as follows: Monoamine oxidase enzyme assay (Amplex Red), MAO-A selectivity assay. Format: biochemical. Conditions: for inhibition at 100 µM: single dose of 100 µM of compound. How it is done:
as §1
It is known that non-selective (MAO-A/B combined) inhibitors lead to several problems when taken concomitantly with tyramine-containing foods (such as cheese) since the drug's inhibition of MAO-A causes a dangerous elevation of serum tyramine levels, which can cause hypertensive symptoms. […] To calculate the selectivity index (SI: the selectivity for the MAO-B isoform given as the ratio of IC50 (MAO-A)/IC50 (MAO-B)), IC50 values of both compounds have been identified and found to be more than 100 µM. Consequently, the selectivity indices were calculated as illustrated in Table 2.

Data set [4] deals with T3, hMAO-B enzyme (Homo sapiens, UniProt P27338).
T3 construct: purchased Sigma-Aldrich (St. Louis, MO); host or cells: insect cells
T3 sequence (P27338 1-520): T1 sequence (P27338 1-520)
The data set is described as follows: Kinetic study of MAO-B inhibition mode (Michaelis-Menten, Lineweaver-Burk). It counts as biochemical. How it is done:
The type of MAO-B inhibition of compound 4e was determined by the Michaelis–Menten kinetic study. The catalytic rates of hMAO-B enzyme in the absence or in the presence of three different concentrations (10, 30, and 100 nM) of compound 4e were measured at seven different concentrations of the benzylamine (0.065, 0.125, 0.25, 0.5, 1, 2, and 4 mM). The corresponding progression curves and the Lineweaver–Burk plots were generated using GraphPad Prism 7 (La Jolla, CA). The maximal velocity (Vmax), the Michaelis constant (Km), and the inhibition constant (Ki) were calculated using SigmaPlot® 13.0 (Palo Alto, CA).
Detailed substrate-dependent kinetic experiments were carried out to examine the mode of MAO-B inhibition of compound 4e. The initial rates of MAO-B inhibition in the absence and presence of 4e were measured at various concentrations of benzylamine, a selective substrate for MAO-B, and both Michaelis–Menten and the Lineweaver–Burk plots are depicted in Figure 4. The Lineweaver–Burk plots for three different concentration of 4e were linear and intersected at the y-axis.

For data set [5], the system named is MAO-A. Further details: method as in PMID 24955776. Conditions: cited from earlier work.
Where [6] appears, read: single dose of 10 µM of compound.

By inhibition is commonly meant how much of the control response was suppressed. Broadly, the melting point is the temperature, or range, at which the solid turns liquid. A word on the IC50: it is the point on the concentration scale where inhibition reaches its midpoint. By Ki is commonly meant the equilibrium dissociation constant of an inhibitor or competing ligand from its target.

Structures are written as SMILES. Entries after “also recorded” stand apart in the source; their conditions may differ. Where two headings read alike, the source gives them in different places.

In turn, `O=C(Nc1ccc2c(ccn2Cc2ccccn2)c1)c1ccnnc1` [4g, N-(1-(pyridin-2-ylmethyl)-1H-indol-5-yl)pyridazine-4-carboxamide] registered a melting point of 141.8 to 143 °C. In data set [1] (setting [6]), the inhibition at 10 µM worked out at 1.83 ± 0.75%.

As to `C#CCN[C@@H]1CCc2ccccc21` [rasagiline], in data set [2] (calculated SI), the “SI (selectivity index) for MAO-B” value is reported as over 50.

The compound `O=C(Nc1ccc2c(ccn2C(=O)c2cccc(F)c2)c1)c1cccnc1` [4f, N-(1-(3-fluorobenzoyl)-1H-indol-5-yl)nicotinamide] came in with a melting point of 212.9 to 214.2 °C. Moreover, the inhibition at 10 µM in data set [1] (setting [6]) turned out to be 30.29 ± 0.24%.

On to `O=C(Nc1ccc2c(ccn2Cc2ccc(F)cc2)c1)c1cnccn1` [4b, N-(1-(4-fluorobenzyl)-1H-indol-5-yl)pyrazine-2-carboxamide], for which, in data set [1], the half-inhibitory concentration (IC50) was 1650 nM; the inhibition at 10 µM came out at 88.49 ± 0.13%; the “SI (selectivity index), IC50 (MAO-A)/IC50 (MAO-B)” value is over 60. In data set [3], the IC50 is over 100000 nM and the inhibition at 100 µM was determined as 12.9 ± 1.09%.

In the case of `Cn1ccc2cc(NC(=O)c3ccnnc3)ccc21` [4j, N-(1-methyl-1H-indol-5-yl)pyridazine-4-carboxamide], the melting point was 181.1 to 182 °C. Moreover, in data set [1] (setting [6]), the inhibition at 10 µM was found to be 9.52 ± 0.61%.

The compound `Cn1ccc2cc(NC(=O)c3cccnc3)ccc21` [4l, N-(1-methyl-1H-indol-5-yl)nicotinamide] gave a melting point of 164.2 to 164.9 °C. Further, the inhibition at 10 µM in data set [1] (setting [6]) amounted to 11.6%.

Regarding `Cn1ccc2cc(NC(=O)c3cnccn3)ccc21` [4k, N-(1-methyl-1H-indol-5-yl)pyrazine-2-carboxamide], the melting point was 172.5 to 174 °C. The inhibition at 10 µM in data set [1] (setting [6]) came out at 49.7 ± 0.68%.

`O=C(Nc1ccc2c(ccn2C(=O)c2cccc(F)c2)c1)c1cnccn1` [4e, N-(1-(3-fluorobenzoyl)-1H-indol-5-yl)pyrazine-2-carboxamide] yielded a melting point of 221.3 to 222.2 °C. Besides, in data set [1], the half-inhibitory concentration (IC50) came out at 780 nM and the “SI (selectivity index), IC50 (MAO-A)/IC50 (MAO-B)” value was over 120. Besides, in data set [1] (setting [6]), the inhibition at 10 µM is 66.4 ± 0.79%. Also, in data set [3], the concentration for half-maximal inhibition (IC50) is over 100000 nM and the inhibition at 100 µM was 4.76 ± 0.59%. For the same compound, the “Mode of MAO-B inhibition” value in data set [4] (Lineweaver-Burk plots intersected at the y-axis) is “competitive; also recorded: reversible”. For the same compound, in data set [4] (substrate benzylamine, 10, 30, 100 nM of 4e, read-out: Inhibition constant (Ki) MAO-B), the inhibition constant (Ki) was 94.5 nM.

As to `Cn1cc(C(=O)Nc2ccc3[nH]ncc3c2)ccc1=O` [V], in data set [2], the “Activity over human MAO-B (in words)” value was “totally inactive”. For the same compound, the 50% inhibitory concentration (IC50) in data set [2] and in data set [5] was over 10000 nM throughout.

Turning to `O=C(Nc1ccc2c(ccn2Cc2ccccn2)c1)c1cnccn1` [4h, N-(1-(pyridin-2-ylmethyl)-1H-indol-5-yl)pyrazine-2-carboxamide], the melting point lay within 152 to 152.9 °C. Further, the inhibition at 10 µM in data set [1] (setting [6]) turned out to be 2.38 ± 0.66%.

As for `O=C(Nc1ccc2[nH]ncc2c1)c1cccc(Cl)c1Cl` [VI], the results for the IC50 in data set [2] and in data set [5] were 2590 nM and over 10000 nM, respectively.

With `O=C(Nc1ccc2c(ccn2C(=O)c2cccc(F)c2)c1)c1ccnnc1` [4d, N-(1-(3-fluorobenzoyl)-1H-indol-5-yl)pyridazine-4-carboxamide], the melting point fell in the range of 196.7 to 196.9 °C. In addition, the inhibition at 10 µM in data set [1] (setting [6]) turned out to be 19.1 ± 0.47%.

Take `O=C(Nc1ccc2[nH]ncc2c1)c1c(F)cccc1Cl` [VII]: the values for the half-maximal inhibitory concentration (IC50) in data set [2] and in data set [5] were 3300 nM and over 10000 nM, respectively.

`O=C(Nc1ccc2c(ccn2Cc2ccccn2)c1)c1cccnc1` [4i, N-(1-(pyridin-2-ylmethyl)-1H-indol-5-yl)nicotinamide] showed a melting point of 142.9 to 144.3 °C. Further, the inhibition at 10 µM in data set [1] (setting [6]) came to 1.81 ± 0.85%.

Regarding `O=C(Nc1ccc2c(ccn2Cc2ccc(F)cc2)c1)c1cccnc1` [4c, N-(1-(4-fluorobenzyl)-1H-indol-5-yl)nicotinamide], the melting point was in the range of 200 to 200.4 °C. For the same compound, the inhibition at 10 µM in data set [1] (setting [6]) came to 11.2 ± 0.24%.

Turning to `O=C(Nc1ccc2c(ccn2Cc2ccc(F)cc2)c1)c1ccnnc1` [4a, N-(1-(4-fluorobenzyl)-1H-indol-5-yl)pyridazine-4-carboxamide], the melting point is 212.6 to 213.1 °C. Moreover, in data set [1] (setting [6]), the inhibition at 10 µM amounted to 13.2 ± 3.32%.
